The record followed here is patent US6500838B2, “Treatment of stereotypic, self-injurious and compulsive behaviors in man and animals using antagonists of NMDA receptors” (The Trustees of Tufts College, priority 1998, dated 2002).

One assay deals with crib-biting horses. Nature of the assay: Rate of crib-biting in horses after drug treatment. In kind it is in vivo, horse. Here is the method:
Horses were admitted to the Large Animal Hospital of Tufts University School of Veterinary Medicine or were tested in their home barn. Cribbing straps and food were removed prior to testing. Control rates of crib-biting were observed and recorded for 5 minute intervals for one hour or more after an intravenous injection of 0.15 M saline. Test drugs were administered orally (by gavage) or by injection into the jugular vein. Solutions were made up with physiological saline and sterilized by filtration through a 0.2 micron filter (Millipore).
For the experimental data shown in FIG. 1, after establishment of a stable control rate of approximately 10 crib-bites per minute, 50 mg of D-methadone-HCl in 25 ml saline was injected i.v. In FIG. 1, the cumulative number of crib-bites was plotted against time as was the rate per 5 minute interval (Shuster, L. and N. H. Dodman, pp. 185-202, In Psychopharmacology of Animal Behavior Disorders, (N. H. Dodman and L. Shuster, eds.), Blackwell Scientific, Malden, Mass., 1998). […] The control rate then resumed during the next 80 minutes of observation. Horses were observed continuously during scoring for side effects that might be attributed to the treatment. These included changes in posture, disposition and motor activity. See also Table 1.

Another assay deals with BALB/c male mice. Nature of the assay: Mouse model for pruritus: scratching after compound 48/80. Type of assay: in vivo. The protocol: The animals used were BALB/c male mice, weighing 27-33 g. One mouse was used per compound tested, except for two control mice receiving saline; two different mice were tested with (+) methadone, each with a different dose. Compound 48/80 (Kuraishi, Y. et al., European Journal of Pharmacology 275:229-233, 1995), 0.5 mg/ml in saline, was injected subcutaneously in a volume of 0.1 ml, between the shoulder blades of the mouse. Test compounds, dissolved in saline, were injected intraperitoneally in a volume of 0.1 ml per 10 g, either 10 minutes before or 30 minutes after injection of compound 48/80. The cumulative number of scratches with a hind leg were recorded at 10 minute intervals for 60 minutes following the injection of compound 48/80. See Tables 2 and 3, as well as FIGS. 4, 5A and 5B, showing the effectiveness of the compounds tested: naltrexone, dextromethorphan, (+) methadone, haloperidol, and (+) naloxone.

The subject of a further assay is stall-walking horse. Description: Stall-walking (turning) in a horse, circuits around the stall. In kind it is in vivo. Conditions: horse Full Circle (turning), 1.0 mg/kg, iv. The protocol:
Dextromethorphan-HBr, 1.0 mg/kg i.v., was injected after 60 minutes of control observations, to test its effect on a stall-walking horse. When measuring “stall walking” locomotor activity, each circuit around the stall was scored as one rotation. Cumulative rotations per 5 minute interval were plotted against time to establish the rate of circling. The results of the experiment are plotted in FIG. 2. See also Table 1.

Setting [1] is: horse CB, 0.2 mg/kg, iv., before treatment 8.8.
Where [2] appears, read: 10 mg/kg i.p. 10 minutes before 48/80, 10 minutes after 48/80.
[3] abbreviates: 10 mg/kg i.p. 10 minutes before 48/80, 20 minutes after 48/80.
Setting [4] is: 10 mg/kg i.p. 10 minutes before 48/80, 30 minutes after 48/80.
Where [5] appears, read: 10 mg/kg i.p. 10 minutes before 48/80, 40 minutes after 48/80.
Where [6] appears, read: 10 mg/kg i.p. 10 minutes before 48/80, 50 minutes after 48/80.
Where [7] appears, read: 10 mg/kg i.p. 10 minutes before 48/80, 60 minutes after 48/80.
Where [8] appears, read: 20 mg/kg i.p. 30 minutes after 48/80, time 10 minutes (before dosing).
Where [9] appears, read: 20 mg/kg i.p. 30 minutes after 48/80, time 20 minutes (before dosing).
[10] abbreviates: 20 mg/kg i.p. 30 minutes after 48/80, time 30 minutes.
[11] abbreviates: 20 mg/kg i.p. 30 minutes after 48/80, time 40 minutes.
Setting [12] is: 20 mg/kg i.p. 30 minutes after 48/80, time 50 minutes.
Where [13] appears, read: 20 mg/kg i.p. 30 minutes after 48/80, time 60 minutes.
The mark [14] stands for this setting: horse CB, 0.2 mg/kg, iv., before treatment 8.2.

Regarding `CCC(=O)C(C[C@H](C)N(C)C)(c1ccccc1)c1ccccc1` [(+) Methadone], in the assay on crib-biting horses (50 mg in 25 ml saline i.v., control rate approximately 10 crib-bites per minute, resumed during the next 80 minutes), the “rate of crib-bites per 5 minute interval” value is “decreased between the second and the fifth 5-minute interval following injection”. For the same compound, the “Crib-biting Frequency number per minute After treatment” value in the assay on crib-biting horses (setting [1]) came to 2.6 number per minute; in the assay with crib-biting horses (horse CB, .01 mg/kg, iv., before treatment 8.2) it was 5.5 number per minute. Further, the “Duration of Effect” value in the assay with crib-biting horses (setting [1]) is 20 min; with crib-biting horses (horse CB, .01 mg/kg, iv.), 10 min. Moreover, in the assay with crib-biting horses (setting [1]), the lag before effect entry is recorded as “(10 min lag)”. In addition, the “Cumulative Scratches” value in the assay on BALB/c male mice (5 mg/kg i.p. 30 minutes after 48/80, time 10 minutes (before dosing)) was 0; in the assay with BALB/c male mice (5 mg/kg i.p. 30 minutes after 48/80, time 20 minutes (before dosing)), 56; with BALB/c male mice (5 mg/kg i.p. 30 minutes after 48/80, time 30 minutes), 114; with BALB/c male mice (5 mg/kg i.p. 30 minutes after 48/80, time 40 minutes), 145; in the assay on BALB/c male mice (5 mg/kg i.p. 30 minutes after 48/80, time 50 minutes) it was 210; in the assay with BALB/c male mice (5 mg/kg i.p. 30 minutes after 48/80, time 60 minutes), 267. Besides, the “Cumulative Scratches” value in the assay with BALB/c male mice (setting [2]), in the assay on BALB/c male mice (setting [3]), with BALB/c male mice (setting [4]), in the assay with BALB/c male mice (setting [5]), with BALB/c male mice (setting [6]) and in the assay with BALB/c male mice (setting [7]) was 0 throughout. The “Cumulative Scratches” value in the assay on BALB/c male mice (10 mg/kg i.p. 30 minutes after 48/80, time 10 minutes (before dosing)) was determined as 6; with BALB/c male mice (10 mg/kg i.p. 30 minutes after 48/80, time 20 minutes (before dosing)), 38; with BALB/c male mice (10 mg/kg i.p. 30 minutes after 48/80, time 30 minutes), 106; with BALB/c male mice (10 mg/kg i.p. 30 minutes after 48/80, time 40 minutes), 107; in the assay on BALB/c male mice (10 mg/kg i.p. 30 minutes after 48/80, time 50 minutes) it was 107; in the assay with BALB/c male mice (10 mg/kg i.p. 30 minutes after 48/80, time 60 minutes), 107.
In the case of `C=CCN1CC[C@]23c4c5ccc(O)c4O[C@H]2C(=O)CC[C@]3(O)[C@H]1C5` [(+) naloxone], the “Duration of Effect” value in the assay on crib-biting horses (horse CB, 0.12 mg/kg, iv.) amounted to 60 min; with crib-biting horses (horse CB, 0.18 mg/kg, i.v.), 60 min. The lag before effect entry is “(30 min lag)” in the assay on crib-biting horses (horse CB, 0.12 mg/kg, iv.) and “(no lag)” in the assay on crib-biting horses (horse CB, 0.18 mg/kg, i.v.). Moreover, the “Crib-biting Frequency number per minute After treatment” value in the assay with crib-biting horses (horse CB, 0.12 mg/kg, iv., before treatment 10) is recorded as 6.6 number per minute; in the assay with crib-biting horses (horse CB, 0.18 mg/kg, i.v., before treatment 9.2) it was 0.8 number per minute. Further, the “Cumulative Scratches” value in the assay on BALB/c male mice (setting [8]) worked out at 4; with BALB/c male mice (setting [9]), 48; with BALB/c male mice (setting [10]), 105; in the assay on BALB/c male mice (setting [11]), 112; in the assay on BALB/c male mice (setting [12]), 146; with BALB/c male mice (setting [13]), 175.
For `COc1ccc2c(c1)[C@]13CCCC[C@@H]1[C@H](C2)N(C)CC3` [Dextromethorphan], the “Duration of Effect” value in the assay on crib-biting horses (horse CB, 1.0 mg/kg, i.v.) turned out to be 35 min; in the assay with crib-biting horses (horse CB, 1.0 mg/kg, p.o.), 90 min; with crib-biting horses (horse Frito, 3.2 mg/kg p.o.), 100 min; with stall-walking horse it was 45 min. Moreover, the lag before effect result with crib-biting horses (horse CB, 1.0 mg/kg, i.v.) was “(no lag)”; in the assay on crib-biting horses (horse CB, 1.0 mg/kg, p.o.), “(35 min lag)”; with crib-biting horses (horse Frito, 3.2 mg/kg p.o.) it was “(30 min lag)”; with stall-walking horse it was “(no lag)”. In addition, the “Crib-biting Frequency number per minute After treatment” value came to 0.3 number per minute with crib-biting horses (horse CB, 1.0 mg/kg, i.v., before treatment 7.6); 1.7 number per minute in the assay on crib-biting horses (horse CB, 1.0 mg/kg, p.o., before treatment 8); 1.8 number per minute in the assay on crib-biting horses (horse Frito, 3.2 mg/kg p.o., before treatment 3.5). Besides, in the assay on stall-walking horse (before treatment 3.5 turns per min.), the “turns per min. After treatment” value is reported as “.3 turns turns per min”. Also, the “Cumulative Scratches” value in the assay with BALB/c male mice (setting [2]) is on record as 1; in the assay on BALB/c male mice (setting [3]), 57; in the assay on BALB/c male mice (setting [4]), 105; in the assay with BALB/c male mice (setting [5]) it was 157; in the assay on BALB/c male mice (setting [6]), 182; in the assay with BALB/c male mice (setting [7]) it was 192. The “Cumulative Scratches” value is 47 in the assay with BALB/c male mice (setting [8]); 125 in the assay on BALB/c male mice (setting [9]); 158 in the assay on BALB/c male mice (setting [10]); 171 in the assay with BALB/c male mice (setting [11]); 178 in the assay with BALB/c male mice (setting [12]); 185 in the assay on BALB/c male mice (setting [13]).
`O=C(CCCN1CCC(O)(c2ccc(Cl)cc2)CC1)c1ccc(F)cc1` [Haloperidol]: the “Cumulative Scratches” value with BALB/c male mice (2.0 mg/kg i.p. 30 minutes after 48/80, time 10 minutes (before dosing)) is 2; in the assay with BALB/c male mice (2.0 mg/kg i.p. 30 minutes after 48/80, time 20 minutes (before dosing)) it was 87; in the assay with BALB/c male mice (2.0 mg/kg i.p. 30 minutes after 48/80, time 30 minutes), 108; with BALB/c male mice (2.0 mg/kg i.p. 30 minutes after 48/80, time 40 minutes), 137; in the assay on BALB/c male mice (2.0 mg/kg i.p. 30 minutes after 48/80, time 50 minutes) it was 137; in the assay on BALB/c male mice (2.0 mg/kg i.p. 30 minutes after 48/80, time 60 minutes) it was 142.
As to `O=C1CC[C@@]2(O)[C@H]3Cc4ccc(O)c5c4[C@@]2(CCN3CC2CC2)[C@H]1O5` [Naltrexone], the “Cumulative Scratches” value in the assay on BALB/c male mice (setting [2]) came to 0; in the assay with BALB/c male mice (setting [3]) it was 0; in the assay on BALB/c male mice (setting [4]), 0; in the assay on BALB/c male mice (setting [5]), 1; in the assay on BALB/c male mice (setting [6]), 61; in the assay with BALB/c male mice (setting [7]) it was 73.
Take `CNC1(c2ccccc2Cl)CCCCC1=O` (stereo not drawn) [ketamine]: in the assay with crib-biting horses (setting [14]), the “Crib-biting Frequency number per minute After treatment” value came out at 1.3 number per minute, the “Duration of Effect” value was 50 min and the lag before effect result is on record as “(no lag)”.
In the case of (−) naloxone, in the assay on crib-biting horses (horse CB, .04 mg/kg, i.v.), the “Duration of Effect” value is 65 min and the lag before effect entry is on record as “(10 min lag)”. The “Crib-biting Frequency number per minute After treatment” value with crib-biting horses (horse CB, .04 mg/kg, i.v., before treatment 12) was determined as 0.1 number per minute.
